Experimental data as given in ChEMBL document CHEMBL1201862, “PubChem BioAssay data set” (2004).
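Five compound concentrations were applied to cells in 96-well plates for 48 hours; endpoints were derived by simple linear interpolation of the resulting dose-response curve. GI50 = concentration required for 50% inhibition of growth.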 Calls of active or inactive are those of the source. Cut-off read from the data, not from the text of the source: active = GI50 up to about 1.1 µM and inactive = higher.

Assays:
Experiment in all cases: NCI tumour cell line growth inhibition, 48 h
A549 = system: A549
786-0 = system: 786-0
PC-3 = system: PC-3
UACC-257 = system: UACC-257
SW-620 = system: SW-620
IGROV-1 = system: IGROV-1
UACC-62 = system: UACC-62
Hs-578T = system: Hs-578T
HOP-62 = system: HOP-62
MDA-N = system: MDA-N
T47D = system: T47D
NCI-H23 = system: NCI-H23
COLO 205 = system: COLO 205
HT-29 = system: HT-29
RXF 393 = system: RXF 393
OVCAR-3 = system: OVCAR-3
M14 = system: M14
RPMI-8226 = system: RPMI-8226
SF-539 = system: SF-539
UO-31 = system: UO-31

Measured: GI50

Cc1ccc(S(=O)(=O)NCCN(CCNS(=O)(=O)c2ccc(C)cc2)S(=O)(=O)c2ccc(C)cc2)cc1
inactive: A549 25.7 µM | 786-0 43.7 µM | PC-3 > 100 µM | UACC-257 29.1 µM | SW-620 > 100 µM | IGROV-1 84.1 µM | UACC-62 79.1 µM | Hs-578T 22.9 µM | HOP-62 47.4 µM | MDA-N > 100 µM | T47D > 100 µM | NCI-H23 > 100 µM | COLO 205 > 100 µM | HT-29 > 100 µM | RXF 393 87.9 µM | OVCAR-3 > 100 µM | M14 > 100 µM | RPMI-8226 56.2 µM | SF-539 42.5 µM | UO-31 > 100 µM

CC(=O)OC(CC(C)C)P1(=O)N(CC(C)(C)C)[C@@H]2CCCC[C@H]2N1CC(C)(C)C (stereo not given in full)
inactive: A549 5.42 µM | 786-0 10.8 µM | PC-3 3.73 µM | UACC-257 8.41 µM | SW-620 11.3 µM | IGROV-1 11.7 µM | UACC-62 10.1 µM | Hs-578T 9.75 µM | HOP-62 14.6 µM | MDA-N 8.26 µM | T47D 5.36 µM | NCI-H23 10.2 µM | COLO 205 6 µM | HT-29 7.1 µM | RXF 393 6.38 µM | OVCAR-3 9.23 µM | M14 7.4 µM | RPMI-8226 4.01 µM | SF-539 10.5 µM | UO-31 8.65 µM

CSc1ccc2c(cc1=O)[C@@H](NC(=O)c1ccc([N+](=O)[O-])cc1)CCc1cc(O)c(O)c(O)c1-2
inactive: A549 28.1 µM | 786-0 29.8 µM | PC-3 > 100 µM | UACC-257 > 100 µM | SW-620 43.6 µM | IGROV-1 35.4 µM | UACC-62 53.3 µM | Hs-578T 21.2 µM | HOP-62 16.2 µM | MDA-N 22.4 µM | T47D > 100 µM | NCI-H23 45.3 µM | COLO 205 24.7 µM | HT-29 17.8 µM | RXF 393 > 100 µM | OVCAR-3 15.7 µM | M14 30.5 µM | RPMI-8226 40.3 µM | SF-539 28.8 µM | UO-31 78.3 µM

CCOC(=O)NC(Nc1ccc(OC(F)(F)F)cc1)(C(F)(F)F)C(F)(F)F
inactive: A549 > 100 µM | 786-0 > 100 µM | PC-3 > 100 µM | UACC-257 > 100 µM | SW-620 > 100 µM | IGROV-1 > 100 µM | UACC-62 > 100 µM | Hs-578T > 100 µM | HOP-62 > 100 µM | MDA-N > 100 µM | T47D > 100 µM | NCI-H23 > 100 µM | COLO 205 > 100 µM | HT-29 > 100 µM | RXF 393 > 100 µM | OVCAR-3 > 100 µM | M14 > 100 µM | RPMI-8226 > 100 µM | SF-539 > 100 µM | UO-31 > 100 µM
